Source: patent US20240076742A1, “METHODS FOR IMPROVED CANCER TREATMENT” (CELLPHENOMICS GMBH, priority 2020, published 2024)
Values after ≈ are worked out from the molar mass of the structure shown.

Test system: colorectal cancer tumor cells with the SMAD4^R361H mutation
Assay: Cell viability (CellTiterGlo) of patient-derived colorectal tumor cells in Matrigel, SMAD4 R361H
Type: cell-based
Settings: Homo sapiens, 96 h, SMAD4^R361H loss-of-function mutation, 4-day treatment, FIG. 4, read-out: trametinib concentration at which tumor cell viability decreases below the IC50
Description: The mean inhibitory concentration, further referred to as IC50, is the concentration of an inhibitor at which half-maximal inhibition is observed. […] For the experiment, the biological tumor samples were dissociated by incubation with TrypLE Express solution (ThermoFisher Scientific, Germany) and 1.5×10^3 cells per well were seeded in four replicates in Matrigel and overlaid with culture medium. After 3-day incubation at 37° C. in 5% CO2, medium was removed and fresh medium containing trametinib was added. Trametinib was tested in four 1:5 dilution concentrations. Following concentrations were tested: 0.1 μg/ml, 0.02 μg/ml, 0.004 μg/ml and 0.0008 μg/ml. Cells treated with DMSO were used as control while Matrigel only was used for background readout. Staurosporine was used as internal positive control. After 4-day treatment, cell viability was determined by CellTiterGlo® assay. Cell plating, treatment and testing were handled by Biomek FXP Liquid Handler (Beckman Coulter).

CC(=O)Nc1cccc(-n2c(=O)n(C3CC3)c(=O)c3c(Nc4ccc(I)cc4F)n(C)c(=O)c(C)c32)c1 [trametinib, N-(3-{3-Cyclopropyl-5-[(2-fluor-4-iodphenyl)amino]-6,8-dimethyl-2,4,7-trioxo-3,4,6,7-tetrahydropyrido[4,3-d]pyrimidin-1(2H)-yl}phenyl)acetamid]
IC50: 6 ng/mL (≈ 9.75 nM)
